# What was measured:
# [1] = tested on: mRNA expressed from the genes (A) to (D) in rat liver; test: Behavior of genes (mRNA expression level, oligo-DNA microarray) in rat liver after 28-day oral administration; type: in vivo; settings: mRNA vs vehicle control group
# In short: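 Oral gavage, once daily × 28 days; male F344 SPF rats, 5 wk, n=4/group; vehicle controls given equal solvent volume. Liver excised day 28, total RNA purified. Significance: ≥1.5× or ≤1/1.5 of vehicle, direction concordant with other carcinogens.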
# liver = settings: classification of the substance (Cr+/Cr−); cited from earlier work
# rodent = settings: classification of the substance (C+/C−); cited from earlier work
# [2] = classification of the substance (M+/M−); cited from earlier work
# [3] = gene group (A), Unigene No. Rn.167075
# [4] = gene group (C), Unigene No. Rn.120914
smiles,measurement,setting,value
"ClC(Cl)C(Cl)(Cl)Cl [TS055, Pentachloroethane]","Behavior of gene caused by administration of chemical substance, Gene No. 4846","[1]; gene group (A), Unigene No. Rn.144554",−
same,"Behavior of gene caused by administration of chemical substance, Gene No. 2026",[1]; [3],−
same,"Behavior of gene caused by administration of chemical substance, Gene No. 4218",[1]; [3],−
same,"Behavior of gene caused by administration of chemical substance, Gene No. 6182","[1]; gene group (A), Unigene No. Rn.5834",−
same,"Behavior of gene caused by administration of chemical substance, Gene No. 5600","[1]; gene group (A), Unigene No. Rn.9836",−
same,"Behavior of gene caused by administration of chemical substance, Gene No. 1494","[1]; gene group (B), Unigene No. Rn.1430",+
same,"Behavior of gene caused by administration of chemical substance, Gene No. 2045","[1]; gene group (B), Unigene No. Rn.19329",−
same,"Behavior of gene caused by administration of chemical substance, Gene No. 2203","[1]; gene group (B), Unigene No. Rn.21240",−
same,"Behavior of gene caused by administration of chemical substance, Gene No. 533","[1]; gene group (C), Unigene No. Rn.106184",+
same,"Behavior of gene caused by administration of chemical substance, Gene No. 725","[1]; gene group (C), Unigene No. Rn.108075",−
same,"Behavior of gene caused by administration of chemical substance, Gene No. 1163","[1]; gene group (C), Unigene No. Rn.11766",+
same,"Behavior of gene caused by administration of chemical substance, Gene No. 4973","[1]; gene group (C), Unigene No. Rn.118529",+
same,"Behavior of gene caused by administration of chemical substance, Gene No. 4095","[1]; gene group (C), Unigene No. Rn.119024",+
same,"Behavior of gene caused by administration of chemical substance, Gene No. 1334",[1]; [4],+
same,"Behavior of gene caused by administration of chemical substance, Gene No. 6620",[1]; [4],+
same,"Behavior of gene caused by administration of chemical substance, Gene No. 6303","[1]; gene group (C), Unigene No. Rn.123063",+
same,"Behavior of gene caused by administration of chemical substance, Gene No. 5878","[1]; gene group (C), Unigene No. Rn.143213",+
same,"Behavior of gene caused by administration of chemical substance, Gene No. 1131","[1]; gene group (C), Unigene No. Rn.144946",+
same,"Behavior of gene caused by administration of chemical substance, Gene No. 1562","[1]; gene group (C), Unigene No. Rn.14744",+
same,"Behavior of gene caused by administration of chemical substance, Gene No. 1741","[1]; gene group (C), Unigene No. Rn.1647",+
same,"Behavior of gene caused by administration of chemical substance, Gene No. 893","[1]; gene group (C), Unigene No. Rn.164817",+
same,"Behavior of gene caused by administration of chemical substance, Gene No. 6026","[1]; gene group (C), Unigene No. Rn.167685",+
same,"Behavior of gene caused by administration of chemical substance, Gene No. 154","[1]; gene group (C), Unigene No. Rn.185941",+
same,"Behavior of gene caused by administration of chemical substance, Gene No. 1993","[1]; gene group (C), Unigene No. Rn.18728",+
same,"Behavior of gene caused by administration of chemical substance, Gene No. 813","[1]; gene group (C), Unigene No. Rn.201760",+
same,"Behavior of gene caused by administration of chemical substance, Gene No. 2494","[1]; gene group (C), Unigene No. Rn.23969",+
same,"Behavior of gene caused by administration of chemical substance, Gene No. 2546","[1]; gene group (C), Unigene No. Rn.24561",+
same,"Behavior of gene caused by administration of chemical substance, Gene No. 3776","[1]; gene group (C), Unigene No. Rn.43232",+
same,"Behavior of gene caused by administration of chemical substance, Gene No. 3929","[1]; gene group (C), Unigene No. Rn.4620",+
same,"Behavior of gene caused by administration of chemical substance, Gene No. 1119","[1]; gene group (C), Unigene No. Rn.9757",+
same,"Behavior of gene caused by administration of chemical substance, Gene No. 6742","[1]; gene group (C), Unigene No. Rn.9779",+
same,"Behavior of gene caused by administration of chemical substance, Gene No. 5634","[1]; gene group (C), Unigene No. Rn.9862",+
same,"Behavior of gene caused by administration of chemical substance, Gene No. 5726","[1]; gene group (D), Unigene No. Rn.9939",+
same,Liver carcinogenicity,liver,Cr−
same,Carcinogenicity,rodent,C+
same,Mutagenicity by Ames test,[2],M−
